For one test, the target named is T1, h-5-HT6 receptor (Homo sapiens, UniProt P50406).
T1 construct: expressed in transfected cells; host or cells: HEK293 cells (membranes)
The test is described as follows: Human 5-HT6 receptor radioligand binding assay (HEK293 membranes, [3H]-LSD). The procedure:
(v) Human 5-HT6 Receptor Radioligand Binding Assay
Preparation of Membranes by Ultrasonic Treatment and Differential Centrifugation
Cells from stable clonal cell lines expressing the corresponding receptor (5-HT6) were washed with PBS (without Ca^++, Mg^++) and harvested in PBS with 0.02% EDTA. The cells were collected by centrifugation at 500 g for 10 minutes at 4° C., washed with PBS and centrifuged (500 g, 10 minutes at 4° C.). The pellets were stored at −80° C. until use. For membrane preparation, the thawed cell pellet was resuspended in ice-cold sucrose buffer (0.25 M sucrose, 10 mM HEPES (pH 7.4), 1 mM phenylmethylsulfonyl fluoride (PMSF) in DMSO, 5 μg/ml Pepstatin-A, 3 mM EDTA, 0.025% Bacitracin) and homogenized with a Branson Sonifier W-250 (Settings: Timer 4; Output Control 3; Duty Cycle constant; 2 to 3 cycles). Cell disruption was checked with the aid of a microscope. Remaining unbroken cells were pelleted at 1,000 g for 10 minutes at 4° C. The sucrose buffer supernatant was then centrifuged at 60,000 g for 1 hour at 4° C. (Beckman Ultracentrifuge XL 80). The pellet was resuspended in 30 mL of ice-cold Tris buffer (20 mM TRIS (pH 7.4), 5 μg/mL Pepstatin A, 0.1 mM PMSF, 3 mM EDTA) by pipetting through a 10 mL serological pipette and centrifuged for 1 hour at 4° C. at 60,000 g. A final resuspension was performed in a small volume of ice-cold Tris buffer (see above) by pressing through a serological pipette followed by ultrasonic treatment with a Branson Sonifier W-250 (Settings: Timer 1; Output Control 3; Duty Cycle constant; 1 cycle). Protein concentration was determined (BCA-Kit; Pierce) and aliquots stored at −80° C. or in liquid nitrogen for long-term storage.
Receptor Binding Experiments
All receptor binding experiments were carried out in the corresponding assay buffer in a total volume of 200 μL in the presence of various concentrations of test compound (10^−5 M to 10^−9 M, tenfold serial dilution, duplicate determinations). The assays were terminated by filtration on polyethylenimine (PEI 0.1% or 0.3%) presoaked Packard Unifilter Plates (GF/C or GF/B) with a Tomtec MachIII U 96 well-plate harvester. After the plates had been dried for 2 hours at 55° C. in a drying chamber scintillation cocktail (BetaPlate Scint; PerkinElmer) was added. Radioactivity was measured in a Microbeta Trilux two hours after the addition of the scintillation mixture.
5-HT6 Receptor Binding Assay
HEK293 cells stably expressing the h-5-HT6 receptor (NCBI Reference Sequence XM 001435) were cultured in RPMI1640 medium supplemented with 25 mM HEPES, 10% fetal calf serum and 1-2 mM glutamine. The membrane preparation was performed as described above. […] On the day of the assay, the membranes were thawed, diluted in assay buffer (50 mM Tris-HCl, 5 mM CaCl2, 0.1% ascorbic acid, 10 μM pargyline, pH 7.4) to a concentration of 8 μg protein/assay and homogenized by gentle vortexing. […] Non-specific binding was defined with 1 μM methiothepin. The binding reaction was carried out for 3.5 hours at room temperature. During the incubation, the plates were shaken on a plate shaker at 100 rpm and terminated by filtration on Packard Unifilter GF/C (0.1% PEI) plates, followed by 2 wash cycles with ice-cold 50 mM Tris-HCl, 5 mM CaCl2.
Data derived from liquid scintillation counting were analyzed by iterative non-linear regression analysis with the use of the Statistical Analysis System (SAS): a program similar to “LIGAND” as described by Munson and Rodbard (Anal. Biochem. 1980, 107, 220-239). Fitting was performed according to formulae described by Feldman (Anal. Biochem. 1972, 48, 317-338). IC50 and Ki values were expressed as geometrical mean.

Test [1] addresses T2, human serotonin 5-HT2c receptor (Homo sapiens, UniProt P28335).
T2 construct: expressed in transfected cells; host or cells: CHO cells (membrane homogenates)
T2 sequence (P28335 33-458): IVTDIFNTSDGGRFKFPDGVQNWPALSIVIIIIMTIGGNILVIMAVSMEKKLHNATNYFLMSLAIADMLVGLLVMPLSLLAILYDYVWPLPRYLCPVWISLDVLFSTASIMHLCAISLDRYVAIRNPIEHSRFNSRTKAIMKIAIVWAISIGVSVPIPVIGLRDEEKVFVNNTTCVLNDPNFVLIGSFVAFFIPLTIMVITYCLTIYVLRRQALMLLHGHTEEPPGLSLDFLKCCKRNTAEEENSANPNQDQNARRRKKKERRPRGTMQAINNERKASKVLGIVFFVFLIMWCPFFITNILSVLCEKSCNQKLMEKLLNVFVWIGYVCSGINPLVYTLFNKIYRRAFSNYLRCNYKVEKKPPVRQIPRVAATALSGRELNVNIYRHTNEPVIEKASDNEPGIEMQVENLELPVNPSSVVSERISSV
The test is described as follows: Human 5-HT2C receptor radioligand binding assay (agonist site, [125I]DOI). To be noted: 5-HT2c agonist site; transfected CHO cell membranes; 0.2 nM [125I](±)DOI. The procedure: (i) Human 5-HT2C Receptor Radioligand Binding Assay
Affinity of compounds for the agonist site of the […], receptor in transfected CHO cells was determined in a radioligand binding assay essentially as described by Bryant, H. U., et al., Life Sciences (1996) 59(15), 1259-1268.

The target in test [2] is T3, 5HT2C receptors (Homo sapiens, UniProt P28335).
T3 sequence (P28335 33-458): T2 sequence (P28335 33-458)
The test is described as follows: Human 5-HT2C functional assay in 1321N1 cells (intracellular calcium, FLIPR). The test is classed as cell-based. On the set-up: expressed in transfected cells; host or cells: 1321N1 cells. To be noted: 5-HT2c agonist activity, maximum calcium response. An outline of the steps: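 1321N1 cells stably expressing human 5-HT2C were serum-starved overnight and loaded with Fluo-4 AM and 1% probenecid. Compounds (10^−10 to 10^−5 M) were tested alone or with 10^−9 M serotonin, and peak calcium was read by FLIPR. EC50 from four-parameter logistic fit.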
In general terms: Calcium flux is commonly read through the fluorescence of an indicator in the cells.

In test [3] the target is T3, 5HT2C receptors. The test is described as follows: Human 5-HT2C functional high throughput screening assay in CHO-K1 cells (calcium flux). The class given is cell-based. Details: expressed in transfected cells; host or cells: CHO-K1 cells; call rule not given here. An outline of the steps: (§1)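 FLIPR calcium readout, ex 480/em 530 nm, 25 °C, 3 min post-addition; agonist response normalized to serotonin, 4-parameter fit → EC50, Emax (% serotonin). Cells: frozen CHO-K1 stable lines, serum-free overnight, Ca4 dye + 2.5 mM probenecid, 60 min RT dark.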

Another test concerns the target T4, 5HT2B receptors (Homo sapiens, UniProt P41595).
T4 construct: expressed in transfected cells; host or cells: CHO-K1 cells
The test is described as follows: Human 5-HT2B functional high throughput screening assay in CHO-K1 cells (calcium flux). The class given is cell-based. The procedure, abridged:
as §1

Setting [4] is: HEK293 membranes expressing h-5-HT6 receptor, 1 nM [3H]-LSD, geometrical mean, read-out: Ki (5-HT6 Agonist Site Radioligand Binding).

Read-outs that look alike come from different tables or passages of the source.

T1 sequence (P50406 whole entry): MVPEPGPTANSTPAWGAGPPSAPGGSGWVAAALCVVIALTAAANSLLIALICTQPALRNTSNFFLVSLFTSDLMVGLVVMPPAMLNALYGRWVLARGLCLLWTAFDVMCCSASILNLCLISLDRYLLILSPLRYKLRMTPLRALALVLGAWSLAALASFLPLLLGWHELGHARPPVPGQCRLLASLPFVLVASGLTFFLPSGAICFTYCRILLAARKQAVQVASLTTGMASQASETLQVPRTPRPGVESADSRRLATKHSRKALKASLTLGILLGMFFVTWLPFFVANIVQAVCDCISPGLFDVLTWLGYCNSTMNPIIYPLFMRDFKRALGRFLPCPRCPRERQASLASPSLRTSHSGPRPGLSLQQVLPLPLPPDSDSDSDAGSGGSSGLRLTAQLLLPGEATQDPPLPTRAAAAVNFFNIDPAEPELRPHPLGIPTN
T4 sequence (P41595 whole entry): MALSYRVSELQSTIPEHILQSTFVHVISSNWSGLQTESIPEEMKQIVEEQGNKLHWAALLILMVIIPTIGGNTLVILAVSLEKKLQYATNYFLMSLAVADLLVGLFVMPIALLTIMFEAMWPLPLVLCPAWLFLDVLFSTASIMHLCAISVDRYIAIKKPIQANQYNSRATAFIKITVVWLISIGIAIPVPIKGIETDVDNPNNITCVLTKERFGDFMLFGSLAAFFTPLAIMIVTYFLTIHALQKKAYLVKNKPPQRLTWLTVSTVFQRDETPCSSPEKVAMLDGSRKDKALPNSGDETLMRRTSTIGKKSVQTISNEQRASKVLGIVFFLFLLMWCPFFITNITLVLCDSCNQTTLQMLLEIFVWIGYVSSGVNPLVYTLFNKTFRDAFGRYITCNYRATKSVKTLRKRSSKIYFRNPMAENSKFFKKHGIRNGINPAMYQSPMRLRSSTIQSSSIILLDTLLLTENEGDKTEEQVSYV

The Ki is a measure of affinity in units of concentration, obtained from inhibition or displacement. In the case of `N#Cc1ccccc1S(=O)(=O)N1Cc2ccccc2[C@@H]2CN(Cc3ccccc3)C[C@H]2C1` (relative stereo) [Example 21, Trans-2-benzyl-5-(2-cyanophenylsulfonyl)-1,2,3,3a,4,5,6,10b-octahydrobenzo[c]pyrrolo[3,4-e]azepine], the inhibition constant (Ki) at h-5-HT6 receptor (setting [4]) was 36.1 nM.
Broadly, the EC50 is the midpoint of the concentration-response curve. As to `O=S(=O)(c1cccc(F)c1)N1Cc2ccccc2[C@@H]2CNC[C@H]2C1` (relative stereo) [Example 54, Trans-5-(3-fluorophenylsulfonyl)-1,2,3,3a,4,5,6,10b-octahyrobenzo[c]pyrrolo[3,4-e]azepine], the Ki in test [1] was 9.1 nM; at h-5-HT6 receptor, 121 nM. In addition, the half-maximal effective concentration (EC50) at 5HT2C receptors [2] turned out to be 13.2 nM.
On to `Cc1ccc(C)c(S(=O)(=O)N2Cc3ccccc3[C@@H]3CN(Cc4ccccc4)C[C@H]3C2)c1` (relative stereo) [Example 17, Trans-2-benzyl-5-(2,5-dimethylphenylsulfonyl)-1,2,3,3a,4,5,6,10b-octahydrobenzo[c]pyrrolo[3,4-e]azepine], for which the Ki on h-5-HT6 receptor (setting [4]) is 55.1 nM.
Turning to `COc1ccc(OC)c(S(=O)(=O)N2Cc3ccccc3[C@@H]3CN(Cc4ccccc4)C[C@H]3C2)c1` (relative stereo) [Example 15, Trans-2-benzyl-5-(2,5-dimethoxyphenylsulfonyl)-1,2,3,3a,4,5,6,10b-octahydrobenzo[c]pyrrolo[3,4-e]azepine], the Ki on h-5-HT6 receptor (setting [4]) was 490 nM.
“Trans-2-benzyl-5-(2-dichlorophenylsulfonyl)-1,2,3,3a,4,5,6,10b-octahydrobenzo[c]pyrrolo[3,4-e]azepine [Example 19]”: the Ki on h-5-HT6 receptor (setting [4]) amounted to 14.1 nM.
Still for that read-out and setting: the figure for `O=S(=O)(c1cccc2ccccc12)N1Cc2ccccc2[C@@H]2CN(Cc3ccccc3)C[C@H]2C1` (relative stereo) [Example 13, Trans-2-benzyl-5-(naphthalen-1-ylsulfonyl)-1,2,3,3a,4,5,6,10b-octahydrobenzo[c]pyrrolo[3,4-e]azepine] is 37.5 nM.
On the same count and under the same terms, the figure for `COc1cccc(S(=O)(=O)N2Cc3ccccc3[C@@H]3CN(Cc4ccccc4)C[C@H]3C2)c1` (relative stereo) [Example 18, Trans-2-benzyl-5-(3-methoxyphenylsulfonyl)-1,2,3,3a,4,5,6,10b-octahydrobenzo[c]pyrrolo[3,4-e]azepine] is 23.1 nM.
The Emax is the size of the effect at its maximum, as opposed to the concentration needed. For the compound `CN1C[C@H]2CNC(=O)c3cc(OCc4cccc(F)c4)ccc3[C@@H]2C1` (relative stereo) [Example 217, Trans-8-(3-fluorobenzyloxy)-2-methyl-1,2,3,3a,4,5-hexahydrobenzo[c]pyrrolo[3,4-e]azepin-6(10bH)-one], the concentration giving a half-maximal response (EC50) on 5HT2C receptors [3] (5-HT2C agonist activity, CHO-K1 cells, calcium flux, read-out: EC50) is 2 nM; on 5HT2B receptors (5-HT2B agonist activity, CHO-K1 cells, calcium flux, read-out: EC50), greater than 10000 nM. Further, the Emax at 5HT2C receptors [3] (CHO-K1, 5-HT2C, maximum functional response as percentage relative to the effect of serotonin, read-out: Emax) was 120%; on 5HT2B receptors (5-HT2B, maximum functional response as percentage relative to the effect of serotonin), “inactive”. In addition, on h-5-HT6 receptor (setting [4]), the inhibition constant (Ki) worked out at 3180 nM.
For `CN1C[C@H]2CN(S(=O)(=O)c3ccccc3)Cc3ccccc3[C@@H]2C1` (relative stereo) [Example 71, Trans-2-methyl-5-(phenylsulfonyl)-1,2,3,3a,4,5,6,10b-octahydrobenzo[e]pyrrolo[3,4-e]azepine], the figures for the inhibition constant Ki (in test [1]; at h-5-HT6 receptor) were 15 nM and 4.42 nM, respectively. Further, the concentration for a half-maximal effect (EC50) at 5HT2C receptors [2] stood at 14.2 nM.
In the same order, the values of `CN1C[C@H]2CN(S(=O)(=O)c3ccccc3)Cc3ccccc3[C@H]2C1` (relative stereo) [Example 72, Cis-2-methyl-5-(phenylsulfonyl)-1,2,3,3a,4,5,6,10b-octahydrobenzo[c]pyrrolo[3,4-e]azepine] are 65 nM, 71.7 nM and 51.9 nM.
As to `O=S(=O)(c1cccc(Cl)c1Cl)N1Cc2ccccc2[C@@H]2CN(Cc3ccccc3)C[C@H]2C1` (relative stereo) [Example 9, Trans-2-benzyl-5-(2,3-dichlorophenylsulfonyl)-1,2,3,3a,4,5,6,10b-octahydrobenzo[c]pyrrolo[3,4-e]azepine], at 5HT2C receptors [2], the EC50 is greater than 10000 nM. The inhibitory constant (Ki) at h-5-HT6 receptor (setting [4]) was found to be 17.1 nM.
Consider `O=S(=O)(c1ccccc1Br)N1Cc2ccccc2[C@@H]2CN(Cc3ccccc3)C[C@H]2C1` (relative stereo) [Example 11, Trans-2-benzyl-5-(2-bromophenylsulfonyl)-1,2,3,3a,4,5,6,10b-octahydrobenzo[c]pyrrolo[3,4-e]azepine], for which, at h-5-HT6 receptor (setting [4]), the inhibition constant (Ki) turned out to be 40.3 nM.
Turning to `O=S(=O)(c1cc(Cl)ccc1Cl)N1Cc2ccccc2[C@@H]2CN(Cc3ccccc3)C[C@H]2C1` (relative stereo) [Example 10, Trans-2-benzyl-5-(2,5-dichlorophenylsulfonyl)-1,2,3,3a,4,5,6,10b-octahydrobenzo[c]pyrrolo[3,4-e]azepine], the Ki on h-5-HT6 receptor (setting [4]) was 174 nM.

These data come from US8846951B2 (AbbVie Inc., priority 2009, dated 2014).
